Active and inactive are the calls of the source. The calls are words filed in the database; no cut-off is given here.
Legend:
Format in all cases: functional
[1] = species: Rattus norvegicus; experiment: The Magnitude of the peak current produced by 1 uM GABA plus 1 uM compound was normalized with respect to the peak current produced by 1 uM GABA alone on the same cell.
[2] = species: Rattus norvegicus; experiment: The compound gated current reflects the peak current directly gated by 10 uM compound in the absence of GABA compared to the response obtained from the same cell in response to 1 uM GABA alone.
[3] = species: Rattus norvegicus; experiment: The compound gated current reflects the peak current directly gated by 10 uM compound in the absence of GABA compared to the response obtained from the same cell in response to 1 uM GABA alone; No response
[4] = species: Rattus norvegicus; experiment: The Magnitude of the peak current produced by 1 uM GABA plus 1 uM compound was normalized with respect to the peak current produced by 1 uM GABA alone on the same cell. Values are mean+/-SEM

SMILES	Response [1] [%]	Effect [2]	Effect [3]	Response [4] [%]
C[C@]12CCC3C[C@@H](CCO)CCC3C1CC[C@@H]2C#N (stereo partly specified)	497	115		
CC(=O)[C@@H]1CC[C@H]2[C@@H]3CC[C@@H]4C[C@H](O)CCC4[C@H]3CC[C@]12C (stereo partly specified)	523	30		
CC(=O)C1CCC2C3CC[C@H](CCO)CC3CC[C@]12C (stereo partly specified)	213	43		
C[C@]12CCC3C[C@@H](CCO)CCC3C1CCC2C#N (stereo partly specified)	104		inactive	
CC(=O)[C@H]1CCC2C3CC[C@H](CCO)CC3CC[C@@]21C (stereo partly specified)	312	113		
C[C@]12CC[C@@H]3C4CC[C@@H](O)C[C@@H]4CC[C@H]3[C@@H]1CC[C@H]2C#N (stereo partly specified)	514	166		
C[C@]12CCC3C[C@@H](CCO)CCC3C1CC[C@@H]2O (stereo partly specified)	93		inactive	
CC(=O)[C@@H]1CC[C@H]2[C@@H]3CC[C@H]4C[C@H](O)CCC4[C@H]3CC[C@]12C (stereo partly specified)	521	144		
C[C@]12CCC3C[C@@H](CCO)CCC3C1CCC2=O (stereo partly specified)	197		inactive	
CC(=O)[C@H]1CCC2C3CC[C@@H](CCO)CC3CC[C@@]21C (stereo partly specified)			inactive	489
C[C@]12CC[C@@H]3C4CC[C@@H](O)C[C@H]4CC[C@H]3[C@@H]1CC[C@H]2C#N (stereo partly specified)	443	49		
C[C@]12CCC3C[C@H](CCO)CCC3C1CC[C@@H]2C#N (stereo partly specified)	346		inactive	
CC(C)(C)O[C@H]1CCC2C3CC[C@H](CCO)CC3CC[C@@]21C (stereo partly specified)	114		inactive	
